According to patent publication EP4752140A1, “SPIROCYCLICALKENYL OR AZAALKENYL COMPOUND, AND PHARMACEUTICAL COMPOSITION THEREOF, PREPARATION METHOD THEREFOR AND USE THEREOF” (Shanghai Meiyue Biotech Development Co., Ltd., priority 2023, dated 2025):

How the values were obtained:
normal human serum (NHS) = test: Complement-mediated hemolytic activity assay; format: cell-based; settings: Erythrocyte, lysis of rabbit erythrocytes (RE) by NHS, GVB0 buffer with 10 mM Mg-EGTA, 37°C, read-out: Hemolysis IC50
Experimental: The hemolysis assay was performed with reference to the method described in Xuan Yuan et al., Haematologica. (2017) 102: 466-475. Prior to the assay, the optimal concentration of normal human serum (NHS) required to achieve 100% lysis of rabbit erythrocytes (RE) was determined by titration. In this assay, NHS (collected from healthy volunteers) was diluted in GVB^0 buffer containing 10 mM Mg-EGTA (0.1% gelatin, 5 mM Veronal, 145 mM NaCl, 0.025% NaN3, pH 7.3, Complement Technology) and incubated with various concentrations of test compounds at 37°C for 15 minutes. RE (collected from healthy Japanese white rabbits), freshly suspended in GVB^0 buffer containing 10 mM Mg-EGTA, were then added to achieve a final concentration of 1 × 10^8 cells/mL and incubated at 37°C for 30 minutes. The positive control group (100% lysis) consisted of GVB^0 buffer containing 10 mM Mg-EGTA with NHS and RE but without test compounds. The negative control group (0% lysis) consisted of GVB^0 buffer containing 10 mM Mg-EGTA with inactivated NHS (heated at 56°C for 30 minutes or 65°C for 5 minutes) and RE but without test compounds. After centrifugation of the samples at 2000 g for 5 minutes, the supernatant was collected. Absorbance at 415 nm (A415) was measured using a microplate reader (Molecular Devices, SpectraMax i3X). IC50 values were calculated by nonlinear regression from the percentage of hemolysis as a function of test compound concentration.

[1] = test system: Alternative Pathway of the Human Serum Complement System; test: Inhibitory effect on the alternative pathway of the human serum complement system (Wieslab kit); format: biochemical; settings: complement activity, OD405, LPS-coated plate
Experimental: Test compounds were evaluated starting at a concentration of 10 µM, with 3-fold serial dilutions across 8 concentration points. The final concentration of DMSO was 0.1%, and all measurements were performed in duplicate. A vial of human serum (Complement Technology, NHS) was removed from a -80°C ultra-low temperature freezer and allowed to thaw completely on ice. […] The plate was gently mixed on a microplate thermoshaker and incubated at room temperature for 15 minutes. Subsequently, 100 µL of the above mixture was carefully transferred to the pre-coated (LPS-containing) plate provided in the kit (WIESLAB® Complement System Alternative Pathway, AP330RUO). Additionally, 100 µL of Diluent AP was used as a blank control to avoid bubble formation. The plate was incubated at 37°C for 65 minutes. After incubation, the liquid in the wells was discarded, and the plate was washed with 1× wash buffer (300 µL/well) four times, with the liquid being removed as thoroughly as possible from the plate after the final wash. 100 µL of conjugate was added to each well, and the plate was incubated at room temperature (20 to 25°C) for 30 minutes, followed by repetition of the washing step. 100 µL of substrate solution was then added to each well, and the plate was incubated at room temperature (20 to 25°C) for 30 minutes in the dark. The OD405 value was read immediately, or the reaction was terminated by addition of 5 mM EDTA, and the OD405 value was read within 60 minutes. Complement activity was calculated according to the formula: % complement activity = (Sample - NC) / (PC - NC) × 100, and data analysis was performed.

[2] = Single-dose PK study in rats; format: in vivo; settings: male SD rats, oral gavage 3 mg/kg, plasma; for half-life: read-out: Half-life T1/2 (converted); for Cmax: read-out: Maximum plasma concentration Cmax
Experimental: (§1) Male SD rats (Shanghai Bikai Keyi Biotechnology Co. Ltd.) aged 6 to 9 weeks were fasted overnight. Three […] per group were administered the test compounds by oral gavage at a dosing volume of 10 mL/kg. Blood samples (0.2 mL per time point) were collected via the jugular vein into EDTA-K2 anticoagulant tubes and immediately centrifuged at 4000 rpm for 5 minutes at 4°C. The supernatants were collected. Blood samples were collected at the following time points: 15 minutes, 30 minutes, 1 hour, 2 hours, 4 hours, 7 hours, and 24 hours. The animals were continuously monitored for general condition after dosing. After completion of blood collection at all time points, the animals were euthanized. Plasma samples were analyzed by LC-MS/MS, and pharmacokinetic parameters were calculated using WinNonlin software.

[3] = Single-dose PK study in mice; settings: mouse, in vivo, male ICR mice, oral gavage 10 mg/kg, plasma
Experimental: as §1, with “ICR mice” for “SD rats”, “Co.,” for “Co.”, “weighing approximately 25 g” for “aged 6 to 9 weeks”, “(30 µL” for “(0.2 mL”, “orbital sinus” for “jugular vein”

[4] = rat, in vivo, read-out: Area under the curve AUC0-24h
[5] = rat, read-out: Area under the curve AUC0-24h

**Q.** Which results are given for `COc1cc(C)c2[nH]ccc2c1CN1CC[C@H](C=C(F)F)C[C@H]1c1ccc(C(=O)O)cc1C` (single isomer, unassigned) [Compound 33-P1]?
**A.** IC50 (normal human serum (NHS)): 82.2 nM; IC50 [1]: 50.4 nM; AUC(0-t) at 24 h [2, 4]: 10700 ng·h/mL; half-life ([2]; rat, in vivo): 11.2 h; Cmax ([2]; rat, in vivo): 1240 ng/mL

**Q.** With `CCO[C@H]1CCN(Cc2c(OC)cc(C)c3[nH]ccc23)[C@H](c2ccc(C(=O)O)cc2)C1` [Comparative Example 1, reference compound] as the molecule, how does the “Clearance CL” value [2] read?
**A.** Its value is 13.549 mL/min/kg.

**Q.** What about the AUC(0-t) [2, 5] of the same molecule?
**A.** Its AUC(0-t) is 3660 ng·h/mL.

**Q.** And the half-life ([2]; rat)?
**A.** Its half-life is 3.38 h.

**Q.** What about the Cmax ([2]; rat) of the same molecule?
**A.** Its Cmax is 714 ng/mL.

**Q.** With `COc1cc(C)c2[nH]ccc2c1CN1CCC2(CC(=C(F)F)C2)C[C@H]1c1ccc(C(=O)O)cc1` (some centres unmarked) [Compound 1] as the molecule, how does the IC50 (normal human serum (NHS)) read?
**A.** Its IC50 is 86.2 nM.

**Q.** What about the IC50 [1] of the same molecule?
**A.** The IC50 was 53.2 nM.

**Q.** And the AUC(0-t) at 24 h ([3]; read-out: Area under the curve AUC0-24h)?
**A.** The AUC(0-t) at 24 h was 9230 ng·h/mL.

**Q.** And the half-life ([3]; read-out: Half-life T1/2 (converted))?
**A.** The half-life was 13.1 h.

**Q.** What about the Cmax ([3]; read-out: Maximum plasma concentration Cmax) of the same molecule?
**A.** Its Cmax is 1530 ng/mL.

**Q.** What about the AUC(0-t) at 24 h [2, 4] of the same molecule?
**A.** Its AUC(0-t) at 24 h is 8320 ng·h/mL.

**Q.** And the half-life ([2]; rat, in vivo)?
**A.** The half-life was 11.3 h.

**Q.** And the Cmax ([2]; rat, in vivo)?
**A.** The Cmax was 720 ng/mL.

**Q.** For `COc1cc(C)c2[nH]ccc2c1CN1CCC(=C(F)F)C[C@H]1c1ccc(C(=O)O)cc1` [Compound 19], which IC50 (normal human serum (NHS)) is on record?
**A.** The IC50 was 2790 nM.

**Q.** For `COc1cc(C)c2[nH]ccc2c1CN1CC[C@H](C=C(F)F)C[C@H]1c1ccc(C(=O)O)cc1` [Compound 32-P1], which IC50 (normal human serum (NHS)) is on record?
**A.** The IC50 was 94.2 nM.

**Q.** And the IC50 [1]?
**A.** Its IC50 is 47.3 nM.

**Q.** What about the AUC(0-t) at 24 h [2, 5] of the same molecule?
**A.** The AUC(0-t) at 24 h was 17600 ng·h/mL.

**Q.** What about the half-life ([2]; rat) of the same molecule?
**A.** The half-life was 13.2 h.

**Q.** And the Cmax ([2]; rat)?
**A.** Its Cmax is 1290 ng/mL.

**Q.** For `COc1cc(C)c2[nH]ccc2c1CN1CCC(C=C(F)F)C[C@H]1c1ccc(C(=O)O)cc1Cl` (some centres unmarked) [Compound 34-1], which IC50 (normal human serum (NHS)) is on record?
**A.** Its IC50 is 61.6 nM.

**Q.** With `COc1cc(C)c2[nH]ccc2c1CN1CC[C@H](C=C(F)F)C[C@H]1c1ccc(C(=O)O)c(Cl)c1` [Compound 35-P1] as the molecule, how does the IC50 (normal human serum (NHS)) read?
**A.** The IC50 was 61.5 nM.

**Q.** For `COc1cc([C@@H]2C[C@@H](C=C(F)F)CCN2Cc2c(OC)cc(C)c3[nH]ccc23)ccc1C(=O)O` [Compound 36-P1], which IC50 (normal human serum (NHS)) is on record?
**A.** The IC50 was 44 nM.

**Q.** What about the AUC(0-t) at 24 h [2, 4] of the same molecule?
**A.** The AUC(0-t) at 24 h was 4500 ng·h/mL.

**Q.** And the half-life ([2]; rat, in vivo)?
**A.** The half-life was 8.29 h.

**Q.** What about the Cmax ([2]; rat, in vivo) of the same molecule?
**A.** Its Cmax is 667 ng/mL.

**Q.** Which IC50 (normal human serum (NHS)) does the source give for `Cc1cc(C)c2[nH]ccc2c1CN1CC[C@H](C=C(F)F)C[C@H]1c1ccc(C(=O)O)cc1` [Compound 37-P1] here?
**A.** The IC50 was 20.7 nM.

**Q.** For `COc1cc(Cl)c2[nH]ccc2c1CN1CC[C@H](C=C(F)F)C[C@H]1c1ccc(C(=O)O)cc1` [Compound 38-P1], which IC50 (normal human serum (NHS)) is on record?
**A.** The IC50 was 139 nM.

**Q.** With `[2H]C([2H])([2H])Oc1cc(C)c2[nH]ccc2c1CN1CC[C@H](C=C(F)F)C[C@H]1c1ccc(C(=O)O)cc1` [Compound 39-P1] as the molecule, how does the IC50 (normal human serum (NHS)) read?
**A.** The IC50 was 113 nM.

**Q.** And the AUC(0-t) at 24 h [2, 5]?
**A.** Its AUC(0-t) at 24 h is 13300 ng·h/mL.

**Q.** And the half-life ([2]; rat)?
**A.** The half-life was 9.44 h.

**Q.** What about the Cmax ([2]; rat) of the same molecule?
**A.** The Cmax was 1280 ng/mL.

**Q.** With `COc1cc(C)c2[nH]ccc2c1CN1CC[C@H](C=C(F)F)C[C@H]1c1ccc(C(=O)O)c(O)c1` [Compound 40-P1] as the molecule, how does the IC50 (normal human serum (NHS)) read?
**A.** Its IC50 is 21.8 nM.

**Q.** With `COc1cc(C)c2[nH]ccc2c1CN1CC[C@H](C=C2CC2)C[C@H]1c1ccc(C(=O)O)cc1` [Compound 41-P1] as the molecule, how does the IC50 (normal human serum (NHS)) read?
**A.** The IC50 was 34.8 nM.

**Q.** With `Cc1cc(C2CC2)c(CN2CC[C@H](C=C(F)F)C[C@H]2c2ccc(C(=O)O)cc2)c2cc[nH]c12` [Compound 60-P1] as the molecule, how does the IC50 (normal human serum (NHS)) read?
**A.** The IC50 was 116 nM.
